Measured values as given in the NIST ThermoML archive (doi:10.1016/j.tca.2011.06.003).

Experiment: xn = mol fraction of the nth substance listed
Details: 101 kPa, Liquid; for mass density: Vibrating tube method; for speed of sound: Sing-around technique in a fixed-path interferometer

NCCNCCN [di(2-aminoethyl)amine] + CCCCO
Details	mass density, 303.15 K [kg/m3]	mass density, 308.15 K [kg/m3]	mass density, 313.15 K [kg/m3]	speed of sound, 308.15 K [m/s]	speed of sound, 313.15 K [m/s]	viscosity, 303.15 K [mPa·s]	viscosity, 308.15 K [mPa·s]
x1 = 0.0517	–	810.286	806.326	1237.4	1220.9	2.576	2.27
x1 = 0.1085	–	822.424	818.415	1269.3	1253.3	3.027	2.622
x1 = 0.153	–	831.084	827.042	1293.2	1277.3	3.256	2.81
x1 = 0.2024	–	839.988	835.917	1318.5	1302.4	3.52	3.027
x1 = 0.2524	–	848.419	844.331	1343	1327.4	3.768	3.198
x1 = 0.3079	–	857.059	852.959	1368.6	1352.7	3.919	3.341
x1 = 0.4082	–	871.155	867.047	1412.2	1396.2	4.169	3.524
x1 = 0.5013	887.28	883.174	879.057	1450.2	1433.9	4.262	3.617
x1 = 0.6067	899.921	895.798	891.664	1490	1473.9	4.302	3.642
x1 = 0.7079	911.479	907.33	903.173	1527.2	1510.5	4.323	3.671
x1 = 0.8	921.305	917.129	912.964	1560.9	1543.6	4.335	3.689
x1 = 0.8548	927.266	923.082	918.81	1580.1	1563	4.346	3.712
x1 = 0.9075	932.668	928.432	924.23	1598.6	1580.1	4.366	3.731
x1 = 0.9525	937.017	932.798	928.584	1614.5	1594.8	4.422	3.771
